Assay [1] addresses purified recombinant human GAC (GLS1) (Homo sapiens (Human), UniProt O94925). Kind of assay: GLS1 Enzymatic Activity Assay (dual-coupled enzymatic assay, resorufin/Amplex UltraRed readout).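 Also: glutamate from GAC coupled via glutamate oxidase and peroxidase to resorufin, read as fluorescence (ex 530, em 590 nm) kinetically or at 20 min, four-parameter logistic IC50 fit.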 Type of assay: biochemical.
The next assay deals with A549 cells. Kind of assay: Proliferation Assay (A549 viability, Cell Titer Fluor, 72 hours). It is filed as cell-based. The method, boiled down: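 A549 cells seeded at 1000 cells/well, rested 24 h, then exposed to compound in 0.5% DMSO for 72 h at 37 °C. Viability read by Cell Titer Fluor fluorescence; IC50 from four-parameter logistic fit.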

Where two headings read alike, the source gives them in different places.

purified recombinant human GAC (GLS1), sequence (O94925 other isoform, or with tags, fused parts or gaps): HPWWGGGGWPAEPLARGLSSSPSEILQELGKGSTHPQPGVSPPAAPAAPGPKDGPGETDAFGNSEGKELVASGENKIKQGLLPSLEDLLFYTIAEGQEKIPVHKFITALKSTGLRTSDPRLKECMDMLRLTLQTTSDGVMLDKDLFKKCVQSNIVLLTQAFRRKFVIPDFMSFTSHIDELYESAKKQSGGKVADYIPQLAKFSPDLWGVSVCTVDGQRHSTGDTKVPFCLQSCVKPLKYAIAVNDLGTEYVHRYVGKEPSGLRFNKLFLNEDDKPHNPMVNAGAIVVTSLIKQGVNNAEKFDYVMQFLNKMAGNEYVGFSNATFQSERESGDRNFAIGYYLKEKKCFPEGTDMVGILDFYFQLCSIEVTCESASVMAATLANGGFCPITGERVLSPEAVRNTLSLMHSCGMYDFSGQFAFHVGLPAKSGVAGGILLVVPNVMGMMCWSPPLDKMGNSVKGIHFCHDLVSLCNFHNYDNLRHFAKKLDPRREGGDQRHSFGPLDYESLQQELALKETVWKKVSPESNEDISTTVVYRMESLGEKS

In general, IC50 refers to the point on the concentration scale where inhibition reaches its midpoint. One may read the EC50 as the concentration that produces a half-maximal response. A low value points to greater potency. Regarding `COc1cccc(CNC(=O)c2cn(CCCCn3cc(C(=O)NCc4cc(C(F)(F)F)ccn4)nn3)nn2)c1` [Example 108, 1-[4-(4-{[(3-methoxyphenyl)methyl]carbamoyl}-1H-1,2,3-triazol-1-yl)butyl]-N-{[4-(trifluoromethyl)pyridin-2-yl]methyl}-1H-1,2,3-triazole-4-carboxamide], in assay [1], the IC50 was < 100 nM. Moreover, the EC50 with A549 cells (Homo sapiens, A549, 72 h) fell in the range of 100 to 500 nM.
Taken in the same sequence, the figures for `CC(NC(=O)c1cn(CCCCn2cc(C(=O)NCc3cc(C(F)(F)F)ccn3)nn2)nn1)c1cccc(OC(F)(F)F)c1` (stereo not drawn) [Example 109, 1-{4-[4-({1-[3-(trifluoromethoxy)phenyl]ethyl}carbamoyl)-1H-1,2,3-triazol-1-yl]butyl}-N-{[4-(trifluoromethyl)pyridin-2-yl]methyl}-1H-1,2,3-triazole-4-carboxamide] were < 100 nM and 100 to 500 nM.
Taken in the same sequence, the figures for `CC(C)(C)OC(=O)NCc1cccc(CNC(=O)c2cn(CCCCn3cc(C(=O)NCc4cc(C(F)(F)F)ccn4)nn3)nn2)c1` [Example 110, tert-butyl N-[(3-{[(1-{4-[4-({[4-(trifluoromethyl)pyridin-2-yl]methyl}carbamoyl)-1H-1,2,3-triazol-1-yl]butyl}-1H-1,2,3-triazol-4-yl)formamido]methyl}phenyl)methyl]carbamate] were < 100 nM and < 100 nM.
Turning to `O=C(NCc1cccc(Cl)c1)c1cn(CCCCn2cc(C(=O)NCc3cc(C(F)(F)F)ccn3)nn2)nn1` [Example 111, 1-[4-(4-{[(3-chlorophenyl)methyl]carbamoyl}-1H-1,2,3-triazol-1-yl)butyl]-N-{[4-(trifluoromethyl)pyridin-2-yl]methyl}-1H-1,2,3-triazole-4-carboxamide], the IC50 in assay [1] is < 100 nM. Moreover, the EC50 in the assay on A549 cells (Homo sapiens, A549, 72 h) is < 100 nM.
For `O=C(NCc1cccc(F)c1)c1cn(CCCCn2cc(C(=O)NCc3cc(C(F)(F)F)ccn3)nn2)nn1` [Example 112, 1-[4-(4-{[(3-fluorophenyl)methyl]carbamoyl}-1H-1,2,3-triazol-1-yl)butyl]-N-{[4-(trifluoromethyl)pyridin-2-yl]methyl}-1H-1,2,3-triazole-4-carboxamide], the IC50 in assay [1] lay in the range of 100 to 500 nM. Besides, the EC50 in the assay on A549 cells (Homo sapiens, A549, 72 h) lay within 100 to 500 nM.
Take `O=C(NCc1cccc(CO)c1)c1cn(CCCCn2cc(C(=O)NCc3cc(C(F)(F)F)ccn3)nn2)nn1` [Example 113, 1-{4-[4-({[3-(hydroxymethyl)phenyl]methyl}carbamoyl)-1H-1,2,3-triazol-1-yl]butyl}-N-{[4-(trifluoromethyl)pyridin-2-yl]methyl}-1H-1,2,3-triazole-4-carboxamide]: in assay [1], the IC50 is < 100 nM. The compound also showed an EC50 in the assay with A549 cells (Homo sapiens, A549, 72 h) of 500 to 5000 nM.
Taken in the same sequence, the figures for `O=C(NCc1cc(C(F)(F)F)ccn1)c1cn(CCCCn2cc(C(=O)NCC3CCCCO3)nn2)nn1` (stereo not drawn) [Example 114] were 500 to 5000 nM and 500 to 5000 nM.
As to `O=C(NCc1cccc(OC(F)(F)F)c1)c1cn(CCCCn2cc(C(=O)NCC3CC4CCC3O4)nn2)nn1` (stereo not drawn) [Example 115, N-{7-oxabicyclo[2.2.1]heptan-2-ylmethyl}-1-{4-[4-({[3-(trifluoromethoxy)phenyl]methyl}carbamoyl)-1H-1,2,3-triazol-1-yl]butyl}-1H-1,2,3-triazole-4-carboxamide], the IC50 in assay [1] was in the range of 500 to 5000 nM. In the assay with A549 cells, this compound came in with an EC50 of 500 to 5000 nM.
On to `O=C(NCc1cccc(OC(F)(F)F)c1)c1cn(CCCCn2cc(C(=O)NCC3CC4CCC3O4)nn2)nn1` (stereo not drawn) [Example 116, N-{7-oxabicyclo[2.2.1]heptan-2-ylmethyl}-1-{4-[4-({[3-(trifluoromethoxy)phenyl]methyl}carbamoyl)-1H-1,2,3-triazol-1-yl]butyl}-1H-1,2,3-triazole-4-carboxamide], for which the IC50 in assay [1] is < 100 nM. This compound also returned an EC50 in the assay with A549 cells of 100 to 500 nM.
On to `O=C(NCc1cccc(OC(F)(F)F)c1)c1cn(CCCCn2cc(C(=O)NCC3CCCOC3)nn2)nn1` (stereo not drawn) [Example 117, N-(oxan-3-ylmethyl)-1-{4-[4-({[3-(trifluoromethoxy)phenyl]methyl}carbamoyl)-1H-1,2,3-triazol-1-yl]butyl}-1H-1,2,3-triazole-4-carboxamide], for which, in assay [1], the IC50 lay in the range of 100 to 500 nM. The compound also came in with an EC50 with A549 cells (Homo sapiens, A549, 72 h) of 100 to 500 nM.
Take `O=C(NCc1cccc(OC(F)(F)F)c1)c1cn(CCCCn2cc(C(=O)NCC3CCCCO3)nn2)nn1` (stereo not drawn) [Example 118, N-(oxan-2-ylmethyl)-1-{4-[4-({[3-(trifluoromethoxy)phenyl]methyl}carbamoyl)-1H-1,2,3-triazol-1-yl]butyl}-1H-1,2,3-triazole-4-carboxamide]: the IC50 in assay [1] was in the range of 100 to 500 nM. The concentration giving a half-maximal response (EC50) with A549 cells (Homo sapiens, A549, 72 h) lay within 100 to 500 nM.
On to `O=C(NCc1cccc(C(F)(F)F)c1)c1cn(CCCCn2cc(C(=O)NCC3CCCOC3)nn2)nn1` (stereo not drawn) [Example 119, N-(oxan-3-ylmethyl)-1-{4-[4-({[3-(trifluoromethyl)phenyl]methyl}carbamoyl)-1H-1,2,3-triazol-1-yl]butyl}-1H-1,2,3-triazole-4-carboxamide], for which the IC50 in assay [1] lay in the range of 100 to 500 nM. In the assay with A549 cells (Homo sapiens, A549, 72 h), this compound displayed an EC50 of 100 to 500 nM.
With `O=C(NCc1cccc(C(F)(F)F)c1)c1cn(CCCCn2cc(C(=O)NCC3CCOCC3)nn2)nn1` [Example 120, N-(oxan-4-ylmethyl)-1-{4-[4-({[3-(trifluoromethyl)phenyl]methyl}carbamoyl)-1H-1,2,3-triazol-1-yl]butyl}-1H-1,2,3-triazole-4-carboxamide], the IC50 in assay [1] was 100 to 500 nM. Further, the EC50 with A549 cells (Homo sapiens, A549, 72 h) lay in the range of 500 to 5000 nM.
Taken in the same sequence, the figures for `O=C(NCc1cccc(C(F)(F)F)c1)c1cn(CCCCn2cc(C(=O)NCC3CCCCO3)nn2)nn1` (stereo not drawn) [Example 121, N-(oxan-2-ylmethyl)-1-{4-[4-({[3-(trifluoromethyl)phenyl]methyl}carbamoyl)-1H-1,2,3-triazol-1-yl]butyl}-1H-1,2,3-triazole-4-carboxamide] were 100 to 500 nM and 100 to 500 nM.
With `O=C(NCc1cccc(OC(F)(F)F)c1)c1cn(CCCCn2cc(C(=O)NCc3ccnc(C(F)(F)F)c3)nn2)nn1` [Example 122, 1-{4-[4-({[3-(trifluoromethoxy)phenyl]methyl}carbamoyl)-1H-1,2,3-triazol-1-yl]butyl}-N-{[2-(trifluoromethyl)pyridin-4-yl]methyl}-1H-1,2,3-triazole-4-carboxamide], the IC50 in assay [1] was < 100 nM. The EC50 with A549 cells (Homo sapiens, A549, 72 h) is < 100 nM.
As for `CC(C)(O)c1ccc(CNC(=O)c2cn(CCCCn3cc(C(=O)NCc4cccc(C5CC5)c4)nn3)nn2)cn1` [Example 123, N-[(3-cyclopropylphenyl)methyl]-1-{4-[4-({[6-(2-hydroxypropan-2-yl)pyridin-3-yl]methyl}carbamoyl)-1H-1,2,3-triazol-1-yl]butyl}-1H-1,2,3-triazole-4-carboxamide], in assay [1], the IC50 was < 100 nM. In the assay with A549 cells (Homo sapiens, A549, 72 h), the EC50 was 100 to 500 nM.
Taken in the same sequence, the figures for `O=C(NCc1cccc(N2CCCC2)c1)c1cn(CCCCn2cc(C(=O)NCc3cc(C(F)(F)F)ccn3)nn2)nn1` [Example 124, 1-{4-[4-({[3-(pyrrolidin-1-yl)phenyl]methyl}carbamoyl)-1H-1,2,3-triazol-1-yl]butyl}-N-{[4-(trifluoromethyl)pyridin-2-yl]methyl}-1H-1,2,3-triazole-4-carboxamide] were < 100 nM and < 100 nM.
Turning to `COCCOc1cccc(CNC(=O)c2cn(CCCCn3cc(C(=O)NCc4cc(C(F)(F)F)ccn4)nn3)nn2)c1` [Example 125, 1-{4-[4-({[3-(2-methoxyethoxy)phenyl]methyl}carbamoyl)-1H-1,2,3-triazol-1-yl]butyl}-N-{[4-(trifluoromethyl)pyridin-2-yl]methyl}-1H-1,2,3-triazole-4-carboxamide], the IC50 in assay [1] was < 100 nM. Besides, in the assay with A549 cells (Homo sapiens, A549, 72 h), the EC50 lay in the range of 100 to 500 nM.
Taken in the same sequence, the figures for `O=C(NCc1cccc(OC(F)(F)F)c1)c1cn(CCCCn2cc(C(=O)NCc3cnccn3)nn2)nn1` [Example 126, N-(pyrazin-2-ylmethyl)-1-{4-[4-({[3-(trifluoromethoxy)phenyl]methyl}carbamoyl)-1H-1,2,3-triazol-1-yl]butyl}-1H-1,2,3-triazole-4-carboxamide] were 100 to 500 nM and 100 to 500 nM.
Taken in the same sequence, the figures for `O=C(NCc1ccnnc1)c1cn(CCCCn2cc(C(=O)NCc3cccc(OC(F)(F)F)c3)nn2)nn1` [Example 127, 1-(4-{4-[(pyridazin-4-ylmethyl)carbamoyl]-1H-1,2,3-triazol-1-yl}butyl)-N-{[3-(trifluoromethoxy)phenyl]methyl}-1H-1,2,3-triazole-4-carboxamide] were 100 to 500 nM and 500 to 5000 nM.
Regarding `O=C(NCc1cccc(C2CC2)c1)c1cn(CCCCn2cc(C(=O)NCc3cc(C4CC4)ccn3)nn2)nn1` [Example 128, N-[(3-cyclopropylphenyl)methyl]-1-[4-(4-{[(4-cyclopropylpyridin-2-yl)methyl]carbamoyl}-1H-1,2,3-triazol-1-yl)butyl]-1H-1,2,3-triazole-4-carboxamide], the IC50 in assay [1] was < 100 nM. Further, the EC50 with A549 cells (Homo sapiens, A549, 72 h) was < 100 nM.
On to `O=C(NCc1cccc(C2CC2)c1)c1cn(CCC(F)Cn2cc(C(=O)NCc3cc(C4CC4)ccn3)nn2)nn1` (stereo not drawn) [Example 129, N-[(3-cyclopropylphenyl)methyl]-1-[4-(4-{[(4-cyclopropylpyridin-2-yl)methyl]carbamoyl}-1H-1,2,3-triazol-1-yl)-3-fluorobutyl]-1H-1,2,3-triazole-4-carboxamide], for which the IC50 in assay [1] was < 100 nM. In addition, in the assay on A549 cells (Homo sapiens, A549, 72 h), the EC50 is < 100 nM.
In the case of `O=C(NCc1cc(C(F)(F)F)ccn1)c1cn(CC(F)CCn2cc(C(=O)N[C@H](CO)c3ccccc3)nn2)nn1` (stereo partly drawn) [Example 130, 1-[2-fluoro-4-(4-{[(1S)-2-hydroxy-1-phenylethyl]carbamoyl}-1H-1,2,3-triazol-1-yl)butyl]-N-1{[4-(trifluoromethyl)pyridin-2-yl]methyl}-1H-1,2,3-triazole-4-carboxamide], the IC50 in assay [1] fell in the range of 100 to 500 nM. In the assay with A549 cells (Homo sapiens, A549, 72 h), this compound came in with an EC50 of 100 to 500 nM.
Turning to `C[C@@H](NC(=O)c1cn(CCC(F)Cn2cc(C(=O)NCc3cc(C(F)(F)F)ccn3)nn2)nn1)c1ccccc1` (stereo partly drawn) [Example 131, 1-[2-fluoro-4-(4-{[(1R)-1-phenylethyl]carbamoyl}-1H-1,2,3-triazol-1-yl)butyl]-N-{[4-(trifluoromethyl)pyridin-2-yl]methyl}-1H-1,2,3-triazole-4-carboxamide], in assay [1], the concentration for half-maximal inhibition (IC50) was in the range of 100 to 500 nM. In the assay on A549 cells (Homo sapiens, A549, 72 h), the EC50 lay within 100 to 500 nM.
